System: Eschericia coli (E. coli) strain ATCC25922
Test: Standard microdilution assay, MIC against E. coli ATCC25922
Type: cell-based
Details: Escherichia coli; E. coli strain ATCC25922, standard microdilution assay; cutoff 16 micrograms/mL; read-out: MIC E. Coli
Protocol: The in vitro activity of the compounds of the present invention can be determined. Antimicrobial testing is typically performed to determine the minimum inhibitory concentration (MIC). Minimum inhibitory concentrations (MICs) are determined by the microdilution method in a final volume of 100 μl according to protocols outlined by The Clinical and Laboratory Standards Institute (CLSI). Performance standards for reference strains are assessed within the same experimental design to maintain quality control. See, for example, Clinical Laboratory Standards Institute: Methods for dilution antimicrobial susceptibility tests for bacteria that grow aerobically M7-A8. Approved Standard-Eighth Edition. Wayne, Pa.: CLSI; December 2008; and Clinical Laboratory Standards Institute: Performance Standards for Antimicrobial Susceptibility Testing M100-S20; Approved Standard-Twentieth Edition. Wayne, Pa.: CLSI; June 2010.
The compounds of the present invention were tested for antimicrobial activity. The Compounds 1-582 were run against Eschericia coli (E. coli) strain ATCC25922 and Compounds 320-582 were run against Staphylococcus aureus (S. aureus) 11540 strain using a standard microdilution assay to determine minimum inhibitory concentrations (MICs). […] It will be recognized by one skilled in the art that the compounds can be assessed against other bacterial organisms and that the presentation of data for activity against Eschericia coli and Staphylococcus aureus are illustrative and in no way is intended to limit the scope of the present invention. The compounds of the present invention can be assayed against a range of other microorganisms depending upon the performance activity desired to be gathered. Furthermore, the “+” and “−” representation and the selection of a cutoff value of 16 micrograms/mL is also illustrative and in no way is intended to limit the scope of the present invention.

Compound | MIC [µg/mL]
C[C@H](N)CCCc1cc(Cl)c(F)c(-c2cc3cn(-c4ccc([C@H](C)NCC[C@H](Cc5c[nH]nn5)NC(=N)N)cc4)c(=O)nc3[nH]2)c1 [Compound 267] | < 16
CC[C@H](N)CCNCc1ccc(-n2cc3cc(-c4cc(CCC[C@H](C)N)cc(Cl)c4F)[nH]c3nc2=O)cc1 [Compound 152] | < 16
C[C@H](N)CCCc1cc(SC(F)(F)F)cc(-c2cc3cn(-c4ccc([C@@H](CF)NCCCNC(=N)N)cc4)c(=O)nc3[nH]2)c1 [Compound 96] | < 16
C[C@H](N)CCCc1cc(Cl)c(F)c(-c2cc3cn(-c4ccc([C@H](CF)NCCCNC(=N)N)cc4)c(=O)nc3[nH]2)c1 [Compound 150] | < 16
C[C@H](N)CCCc1cc(Cl)c(F)c(-c2cc3cn(-c4cccc(CNCCCNC(=N)N)c4)c(=O)nc3[nH]2)c1 [Compound 90] | < 16
C[C@H](N)CCCc1cc(Cl)c(F)c(-c2cc3cn(-c4ccc(CNCCC5(N)CN(C(=N)N)C5)cc4)c(=O)nc3[nH]2)c1 [Compound 190] | < 16
C[C@H](N)CCCc1cc(Cl)c(F)c(-c2cc3c([nH]2)NC(=O)N(c2ccc([C@H](C)NCCCNC(=N)N)cc2)C3)c1 [Compound 246] | < 16
C[C@H](N)CCCc1cc(Cl)c(F)c(-c2cc3cn(-c4ccc(CN[C@@H](C)CCNC(=N)N)cc4)c(=O)nc3[nH]2)c1 [Compound 195] | < 16
C[C@H](N)CCCc1cc(OC(F)(F)F)c(F)c(-c2cc3cn(-c4ccc(CN[C@@H](CO)CCNC(=N)N)cc4)c(=O)nc3[nH]2)c1 [Compound 274] | < 16
C[C@H](N)CCCc1cc(OC(F)(F)F)c(F)c(-c2cc3cn(-c4ccc([C@H](C)NCC[C@@H](CCCN)NC(=N)N)cc4)c(=O)nc3[nH]2)c1 [Compound 283] | < 16
C[C@H](N)CCCc1cc(-c2cc3cn(-c4ccc([C@H](CO)NCCCNC(=N)N)cc4)c(=O)nc3[nH]2)cc(C(F)(F)F)c1 [Compound 108] | < 16
C[C@H](N)CCCc1cc(Cl)c(F)c(-c2cc3cn(-c4ccc(CNCC[C@H](CN)NC(=N)N)cc4)c(=O)nc3[nH]2)c1 [Compound 203] | < 16
C[C@H](N)CCCc1cc(OC(F)(F)F)c(F)c(-c2cc3cn(-c4ccc(C[C@H](N)CCCNC(=N)N)cc4)c(=O)nc3[nH]2)c1 [Compound 231] | < 16
C[C@H](N)CCCc1cc(Cl)c(F)c(-c2cc3cn(-c4ccc([C@H](C)N[C@@H](C)CCNC(=N)N)cc4)c(=O)nc3[nH]2)c1 [Compound 219] | < 16
C[C@H](N)CCCc1cc(Cl)c(F)c(-c2cc3cn(-c4ccc(CNCCC(=O)O)cc4)c(=O)nc3[nH]2)c1 [Compound 139] | > 16
COC[C@H](N)CCCc1cc(Cl)c(F)c(-c2cc3cn(-c4ccc([C@H](C)NCCCNC(=N)N)cc4)c(=O)nc3[nH]2)c1 [Compound 171] | < 16
C[C@H](N)CCCc1cc(Cl)c(F)c(-c2cc3cn(-c4ccc([C@H](C)NCC[C@@H](CN)NC(=N)N)cc4)c(=O)nc3[nH]2)c1 [Compound 271] | < 16
C=C[C@@H](CCNCc1ccc(-n2cc3cc(-c4cc(CCC[C@H](C)N)cc(Cl)c4F)[nH]c3nc2=O)cc1)NC(=N)N [Compound 177] | < 16
C[C@H](N)CCCc1cc(OC(F)(F)F)c(F)c(-c2cc3cn(-c4ccc(CN[C@H](C)CCNC(=N)N)cc4)c(=O)nc3[nH]2)c1 [Compound 228] | < 16
C[C@H](N)CCCc1cc(Cl)c(F)c(-c2cc3cn(-c4ccc([C@@H](NCCCNC(=N)N)C(=O)N5CCNCC5)cc4)c(=O)nc3[nH]2)c1 [Compound 12] | < 16
C[C@H](NCCCNC(=N)N)c1ccc(-n2cc3cc(-c4cc(SC(F)(F)F)cc([C@H](O)CC[C@H](N)CO)c4)[nH]c3nc2=O)cc1 [Compound 111] | < 16
CNCCCN[C@@H](C)c1ccc(-n2cc3cc(-c4cc(CCC[C@H](C)N)cc(Cl)c4F)[nH]c3nc2=O)cc1 [Compound 208] | < 16
C[C@H](N)CCCc1cc(SC(F)(F)F)cc(-c2cc3cn(-c4ccc(C(NCCCNC(=N)N)c5nnn[nH]5)cc4)c(=O)nc3[nH]2)c1 (stereo partly drawn) [Compound 106] | < 16
C[C@H](N)CCCc1cc(Cl)c(F)c(-c2cc3cn(-c4ccc([C@@H](CF)NCCCNC(=N)N)cc4)c(=O)nc3[nH]2)c1 [Compound 95] | < 16
C[C@H](N)CCCc1cc(SC(F)(F)F)cc(-c2cc3cn(-c4ccc(CNCCC(C)(C)N)cc4)c(=O)nc3[nH]2)c1 [Compound 176] | < 16
C=C[C@H](CCN[C@@H](C)c1ccc(-n2cc3cc(-c4cc(CCC[C@H](C)N)cc(OC(F)(F)F)c4F)[nH]c3nc2=O)cc1)NC(=N)N [Compound 237] | < 16

Compound | MIC [µg/mL]
C[C@H](N)CCCc1cc(Cl)c(F)c(-c2cc3cn(-c4ccc(CNCC#N)cc4)c(=O)nc3[nH]2)c1 [Compound 165] | > 16
C[C@H](N)CCCc1cc(Cl)c(F)c(-c2cc3cn(-c4ccc([C@H](C)NCC[C@@H](Cn5cccn5)NC(=N)N)cc4)c(=O)nc3[nH]2)c1 [Compound 279] | < 16
C=C[C@H](N)CC[C@@H](O)c1cc(SC(F)(F)F)cc(-c2cc3cn(-c4ccc([C@H](C)NCCCNC(=N)N)cc4)c(=O)nc3[nH]2)c1 [Compound 78] | < 16
C[C@H](N)CCCc1cc(SC(F)(F)F)cc(-c2cc3cn(-c4ccc(CNCc5cnc(N)s5)cc4)c(=O)nc3[nH]2)c1 [Compound 159] | > 16
CC[C@H](NCCCNC(=N)N)c1ccc(-n2cc3cc(-c4cc(CCC[C@H](C)N)cc(OC(F)(F)F)c4F)[nH]c3nc2=O)cc1 [Compound 227] | < 16
C[C@H](N)CCCc1cc(Cl)c(F)c(-c2cc3cn(-c4ccc([C@H](C)NCC[C@H](Cn5cc(CN)nn5)NC(=N)N)cc4)c(=O)nc3[nH]2)c1 [Compound 301] | < 16
C[C@H](N)CCCc1cc(Cl)c(F)c(-c2cc3cn(-c4ccc([C@H](C)N[C@H](C)CCNC(=N)N)cc4)c(=O)nc3[nH]2)c1 [Compound 225] | < 16
CC[C@@H](N)CCNCc1ccc(-n2cc3cc(-c4cc(CCC[C@H](C)N)cc(Cl)c4F)[nH]c3nc2=O)cc1 [Compound 197] | < 16
N=C(N)NCCCN[C@@H](CCF)c1ccc(-n2cc3cc(-c4cc(CCC[C@@H](N)CF)cc(Cl)c4F)[nH]c3nc2=O)cc1 [Compound 168] | < 16
COC(=O)N[C@@H](C)CCCc1cc(Cl)c(F)c(-c2cc3cn(-c4ccc([C@H](C)NCCCNC(=N)N)cc4)c(=O)nc3[nH]2)c1 [Compound 70] | < 16
C[C@H](N)CCCc1cc(Cl)c(F)c(-c2cc3cn(-c4ccc(CNCCC(N)C(F)(F)F)cc4)c(=O)nc3[nH]2)c1 (stereo partly drawn) [Compound 172] | > 16
C[C@H](N)CCCc1cc(OC(F)(F)F)c(F)c(-c2cc3cn(-c4ccc(CN[C@H](CO)CCNC(=N)N)cc4)c(=O)nc3[nH]2)c1 [Compound 250] | < 16
C=CC[C@@H](NCCCNC(=N)N)c1ccc(-n2cc3cc(-c4cc(CCC[C@H](C)N)cc(SC(F)(F)F)c4)[nH]c3nc2=O)cc1 [Compound 1] | < 16
C[C@H](N)CCCc1cc(-c2cc3cn(-c4ccc([C@@H](CF)NCCCNC(=N)N)cc4)c(=O)nc3[nH]2)cc(C(F)(F)F)c1 [Compound 97] | < 16
C[C@H](N)CCCc1cc(-c2cc3cn(-c4cccc(CCNCCCNC(=N)N)c4)c(=O)nc3[nH]2)cc(C(F)(F)F)c1 [Compound 62] | < 16
C[C@H](N)CCCc1cc(OC(F)(F)F)c(F)c(-c2cc3cn(-c4ccc([C@H](C)NCC[C@@H](Cc5c[nH]nn5)NC(=N)N)cc4)c(=O)nc3[nH]2)c1 [Compound 268] | < 16
C[C@H](N)CC[C@@H](O)c1cc(SC(F)(F)F)cc(-c2cc3cn(-c4ccc([C@H](C)NCCCNC(=N)N)cc4)c(=O)nc3[nH]2)c1 [Compound 65] | < 16
C[C@H](N)CCCc1cc(Cl)c(F)c(-c2cc3cn(-c4ccc(CNCC(=O)O)cc4)c(=O)nc3[nH]2)c1 [Compound 115] | > 16
COc1ccc([C@H](NCCCNC(=N)N)c2ccc(-n3cc4cc(-c5cc(CCC[C@H](C)N)cc(C(F)(F)F)c5)[nH]c4nc3=O)cc2)cc1 [Compound 17] | < 16
C[C@H](N)CCCc1cc(SC(F)(F)F)cc(-c2cc3cn(-c4ccc([C@H](Cc5cccnc5)NCCCNC(=N)N)cc4)c(=O)nc3[nH]2)c1 [Compound 57] | < 16
C[C@H](N)CCCc1cc(Cl)c(F)c(-c2cc3cn(-c4ccc([C@H](C)NCC[C@H](CCCN)NC(=N)N)cc4)c(=O)nc3[nH]2)c1 [Compound 282] | < 16
C[C@H](N)CCCc1cc(Cl)c(F)c(-c2cc3cn(-c4ccc(CN[C@H](C)CCN)cc4)c(=O)nc3[nH]2)c1 [Compound 210] | < 16
C[C@H](N)CCCc1cc(OC(F)(F)F)c(F)c(-c2cc3cn(-c4ccc([C@H](C)NCC[C@H](CCC#N)NC(=N)N)cc4)c(=O)nc3[nH]2)c1 [Compound 315] | < 16
C[C@H](NCCCNC(=N)N)c1ccc(-n2cc3cc(-c4cc(CCC[C@@H](N)CO)cc(OC(F)(F)F)c4F)[nH]c3nc2=O)cc1 [Compound 243] | < 16
CCOC(=O)N[C@@H](C)CCCc1cc(-c2cn3cc(-c4ccc([C@H](C)NCCCNC(=N)N)cc4)c(=O)nc3[nH]2)cc(C(F)(F)F)c1 [Compound 299] | < 16
